The compounds below were run against P2X7 receptor (Homo sapiens (Human), UniProt Q99572) (assay: P2X7 FLIPR assay (BzATP-stimulated calcium fluorescence, antagonist IC50)).
Type: cell-based
Description: This example illustrates representative assays for use in evaluating the test compounds for antagonist activity. Compounds of the present invention were tested in vitro for their ability to act as antagonists to the P2X7receptor. […]
Cells were plated to cell density of approximately 15,000 cells/well in 384-well assay plates (50 μl/well) with 1.5% low serum media (DMEM, 1.5% FBS, 1% L-glut (2 mM), 10 mM HUES, 1% P/S). Cells were plated 24 hours prior to assay. Cells expressing human, rat or mouse P2X7 receptor were assayed in the following manner.
Fluo-4 NW dye mix (Molecular Probes, Inc., Eugene, Oreg., USA) was prepared in buffer (see manufacturer's instructions). Cell plates were removed from the 37° C. incubator, the media discarded and then 30 μL of dye was added to each well. Plates were placed in the 37° C., non-CO2 incubator for 30 minutes and then room temperature for 30 minutes.
Compound mixtures (A) were added to assay plates containing cells and placed at room temperature for 30 minutes, then BzATP (B) was added. Fluorescence was read using the Tetra FLIPR® (Molecular Devices, Inc., Sunnyvale, Calif., USA) and IC50 values were calculated by standard methods to determine antagonist activity.

Chain of P2X7 receptor (Q99572 whole entry): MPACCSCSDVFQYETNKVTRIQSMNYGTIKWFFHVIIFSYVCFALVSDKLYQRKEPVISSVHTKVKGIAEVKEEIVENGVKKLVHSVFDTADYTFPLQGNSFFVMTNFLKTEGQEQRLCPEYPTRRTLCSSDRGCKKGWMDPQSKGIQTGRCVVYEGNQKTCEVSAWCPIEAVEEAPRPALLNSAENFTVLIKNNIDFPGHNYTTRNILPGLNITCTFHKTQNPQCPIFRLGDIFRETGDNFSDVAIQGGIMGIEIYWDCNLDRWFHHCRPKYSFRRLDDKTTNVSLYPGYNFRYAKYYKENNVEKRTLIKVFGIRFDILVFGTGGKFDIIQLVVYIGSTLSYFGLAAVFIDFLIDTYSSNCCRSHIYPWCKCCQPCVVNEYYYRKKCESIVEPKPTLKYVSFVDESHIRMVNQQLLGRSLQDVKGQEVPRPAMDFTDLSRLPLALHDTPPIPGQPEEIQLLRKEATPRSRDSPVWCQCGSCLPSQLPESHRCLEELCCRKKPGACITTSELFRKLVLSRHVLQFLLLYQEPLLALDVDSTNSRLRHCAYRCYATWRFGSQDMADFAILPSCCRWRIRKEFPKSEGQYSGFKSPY

| SMILES | IC50 [nM] |
| --- | --- |
| CC(C)(O)c1ccc(C(CNC(=O)c2cccc(Cl)c2Cl)CC2CC2)cn1 (single isomer, unassigned; (+)) [(+)2,3-dichloro-N-[3-cyclopropyl-2-[6-(1-hydroxy-1-methyl-et] [(+)2,3-dichloro-N-[3-cyclopropyl-2-[6-(1-hydroxy-1-methyl-ethyl)-3-pyridyl]propyl]benzamide] | 740 |
| CC(C)(O)c1ccc(C2(CNC(=O)c3cccc(Cl)c3Cl)CCC(F)(F)CC2)cn1 [2,3-dichloro-N-[[4,4-difluoro-1-[6-(1-hydroxy-1-methyl-ethyl)-3-pyridyl]cyclohexyl]methyl]benzamide] | 23 |
| COc1ccc(C2(CNC(=O)c3cccc(Cl)c3Cl)CCCC2)cc1 [2,3-Dichloro-N-[1-(4-methoxy-phenyl)-cyclopentylmethyl]-benzamide] | 260 |
| COc1cccc(C(=O)NCC(CC2CC2)c2cnc(C(F)(F)F)nc2)c1Cl (single isomer, unassigned; (+)) [(+)2-chloro-N-[3-cyclopropyl-2-[2-(trifluoromethyl)pyrimidin] [(+)2-chloro-N-[3-cyclopropyl-2-[2-(trifluoromethyl)pyrimidin-5-yl]propyl]-3-methoxy-benzamide] | 14 |
| O=C(NCC(CC1CC1)c1cnc(C(F)(F)F)nc1)c1cccc(Cl)c1Cl (single isomer, unassigned; (+)) [(+)2,3-dichloro-N-[3-cyclopropyl-2-[2-(trifluoromethyl)pyrim] [(+)2,3-dichloro-N-[3-cyclopropyl-2-[2-(trifluoromethyl)pyrimidin-5-yl]propyl]benzamide] | 3.9 |
| O=C(NCC1(c2ccc(Cl)cc2)CCOCC1)c1cccc(Cl)c1F [3-Chloro-N-[4-(4-chloro-phenyl)-tetrahydro-pyran-4-ylmethyl]-2-fluoro-benzamide] | 890 |
| CC(CNC(=O)c1ccccc1Cl)(CC1CC1)c1cnc(C(F)(F)F)nc1 (single isomer, unassigned; (+)) [(+)2-chloro-N-[3-cyclopropyl-2-methyl-2-[2-(trifluoromethyl)] [(+)2-chloro-N-[3-cyclopropyl-2-methyl-2-[2-(trifluoromethyl)pyrimidin-5-yl]propyl]benzamide] | 460 |
| Cc1ccc(C2(CNC(=O)c3cccc(Cl)c3Cl)CCC(F)(F)CC2)cn1 | 7.3 |
| O=C(NCC1(c2cccnc2)CCCC1)c1cccc(Cl)c1Cl [2,3-Dichloro-N-(1-pyridin-3-yl-cyclopentylmethyl)-benzamide] | 2200 |
| O=C(NCC(c1ccc(C(F)(F)F)nc1)C1CC1)c1cccc(Cl)c1Cl (stereo not shown) [2,3-dichloro-N-(2-cyclopropyl-2-(6-(trifluoromethyl)pyridin-3-yl)ethyl)benzamide] | 120 |
| CC(C)(O)c1ccc(C2(CNC(=O)c3ccccc3Cl)CCC(F)(F)CC2)cn1 [2-chloro-N-[[4,4-difluoro-1-[6-(1-hydroxy-1-methyl-ethyl)-3-pyridyl]cyclohexyl]methyl]benzamide] | 380 |
| O=C(NCC1(c2ccc(Cl)cc2)CCOCC1)c1cc(Br)ccc1Cl [5-Bromo-2-chloro-N-[4-(4-chloro-phenyl)-tetrahydro-pyran-4-ylmethyl]-benzamide] | 130 |
| O=C(NCC(CC1CC1)c1cnc(C(F)(F)F)nc1)c1ccccc1Cl (stereo not shown) [2-chloro-N-(3-cyclopropyl-2-(2-(trifluoromethyl)pyrimidin-5-] [2-chloro-N-(3-cyclopropyl-2-(2-(trifluoromethyl)pyrimidin-5-yl)propyl)benzamide] | 13 |
| O=C(NCC1(c2ccc(C(F)(F)F)nc2)CCC(F)(F)CC1)c1cccc(Cl)c1F [3-chloro-N-((4,4-difluoro-1-(6-(trifluoromethyl)pyridin-3-yl)cyclohexyl)methyl)-2-fluorobenzamide] | 3.2 |
| O=C(NCC(c1ccc(F)cc1)c1cnc(C(F)(F)F)nc1)c1ccccc1Cl (single isomer, unassigned; (+)) [(+)2-chloro-N-[2-(4-fluorophenyl)-2-[2-(trifluoromethyl)pyri] [(+)2-chloro-N-[2-(4-fluorophenyl)-2-[2-(trifluoromethyl)pyrimidin-5-yl]ethyl]benzamide] | 4.4 |
| O=C(NCC(c1ccccc1)c1ccc(C(F)(F)F)nc1)c1ccc(Cl)cc1Cl (stereo not shown) [2,4-dichloro-N-(2-phenyl-2-(6-(trifluoromethyl)pyridin-3-yl)ethyl)benzamide] | 25 |
| Cc1ncc(C2(CNC(=O)c3cccc(Cl)c3Cl)CCC(F)(F)CC2)cn1 [2,3-dichloro-N-[[4,4-difluoro-1-(2-methylpyrimidin-5-yl)cyclohexyl]methyl]benzamide] | 8.6 |
| O=C(NCC(c1cnc(C(F)(F)F)nc1)C1CCC(F)(F)CC1)c1ccccc1Cl (single isomer, unassigned; (+)) [(+)2-chloro-N-[2-(4,4-difluorocyclohexyl)-2-[2-(trifluoromet] [(+)2-chloro-N-[2-(4,4-difluorocyclohexyl)-2-[2-(trifluoromethyl)pyrimidin-5-yl]ethyl]benzamide] | 32 |
| O=C(NCC1(c2ccc(F)nc2)CCC(F)(F)CC1)c1ccccc1Cl [2-chloro-N-((4,4-difluoro-1-(6-fluoropyridin-3-yl)cyclohexyl)methyl)benzamide] | 25 |

Continued, values first:

| IC50 [nM] | SMILES |
| --- | --- |
| 1700 | O=C(NCC(CC1(C(F)(F)F)CC1)c1ccc(C2CC2)nc1)c1ccccc1F (stereo not shown) [N-[2-(6-cyclopropyl-3-pyridyl)-3-[1-(trifluoromethyl)cyclopropyl]propyl]-2-fluoro-benzamide] |
| 34 | CC(CNC(=O)c1cccc(F)c1Cl)(CC1CC1)c1cnc(C(F)(F)F)nc1 (single isomer, unassigned; (-)) [(−)2-chloro-N-[3-cyclopropyl-2-methyl-2-[2-(trifluoromethyl)] [(−)2-chloro-N-[3-cyclopropyl-2-methyl-2-[2-(trifluoromethyl)pyrimidin-5-yl]propyl]-3-fluoro-benzamide] |
| 19 | O=C(NCC(CC1CC1)c1ccc(C(F)F)nc1)c1cccc(F)c1Cl (single isomer, unassigned; (-)) [(−)2-chloro-N-[3-cyclopropyl-2-[6-(difluoromethyl)-3-pyridyl] [(−)2-chloro-N-[3-cyclopropyl-2-[6-(difluoromethyl)-3-pyridyl]propyl]-3-fluoro-benzamide] |
| 110 | O=C(NCC(CC1CC1)c1ccc(C(F)(F)F)nc1)c1cccc(C(F)(F)F)c1Cl (single isomer, unassigned; (-)) [(−)2-chloro-N-[3-cyclopropyl-2-[6-(trifluoromethyl)-3-pyridy] [(−)2-chloro-N-[3-cyclopropyl-2-[6-(trifluoromethyl)-3-pyridyl]propyl]-3-(trifluoromethyl)benzamide] |
| 620 | COc1ccccc1C(=O)NCC1(c2ccc(Cl)cc2)CCOCC1 [N-[4-(4-Chloro-phenyl)-tetrahydro-pyran-4-ylmethyl]-2-methoxy-benzamide] |
| 2.6 | O=C(NCC(c1ccc(F)cc1)c1cnc(C(F)(F)F)nc1)c1c(F)cccc1Cl (single isomer, unassigned; (-)) [(−)2-chloro-6-fluoro-N-[2-(4-fluorophenyl)-2-[2-(trifluorome] [(−)2-chloro-6-fluoro-N-[2-(4-fluorophenyl)-2-[2-(trifluoromethyl)pyrimidin-5-yl]ethyl]benzamide] |
| 25 | O=C(NCC(CC1(C(F)(F)F)CC1)c1ccc(C(F)(F)F)nc1)c1cccc(Cl)c1Cl (single isomer, unassigned; (-)) [(−)2,3-dichloro-N-[3-[1-(trifluoromethyl)cyclopropyl]-2-[6-(] [(−)2,3-dichloro-N-[3-[1-(trifluoromethyl)cyclopropyl]-2-[6-(trifluoromethyl)-3-pyridyl]propyl]benzamide] |
| 21 | O=C(NCC(CC1(C(F)(F)F)CC1)c1cnc(C(F)(F)F)nc1)c1cccc(Cl)c1Cl (single isomer, unassigned; (-)) [(−)2,3-dichloro-N-[3-[1-(trifluoromethyl)cyclopropyl]-2-[2-(] [(−)2,3-dichloro-N-[3-[1-(trifluoromethyl)cyclopropyl]-2-[2-(trifluoromethyl)pyrimidin-5-yl]propyl]benzamide] |
| 64 | Cc1ncc(C(CNC(=O)c2cccc(Cl)c2Cl)CC2(C(F)(F)F)CC2)cn1 (single isomer, unassigned; (-)) [(−)2,3-dichloro-N-[2-(2-methylpyrimidin-5-yl)-3-[1-(trifluor] [(−)2,3-dichloro-N-[2-(2-methylpyrimidin-5-yl)-3-[1-(trifluoromethyl)cyclopropyl]propyl]benzamide] |
| 1500 | O=C(NCC1(c2ccc(F)nc2)CCC(F)(F)CC1)c1cc(F)ccc1F [N-((4,4-difluoro-1-(6-fluoropyridin-3-yl)cyclohexyl)methyl)-2,5-difluorobenzamide] |
| 39 | Cc1ccc(C(F)(F)F)cc1C(=O)NCC1(c2ccc(C(F)(F)F)nc2)CCC(F)(F)CC1 [N-((4,4-difluoro-1-(6-(trifluoromethyl)pyridin-3-yl)cyclohexyl)methyl)-2-methyl-5-(trifluoromethyl)benzamide] |
| 1.9 | O=C(NCC(CC1CC1)c1cnc(C(F)F)nc1)c1cccc(Cl)c1Cl (single isomer, unassigned; (-)) [(−)2,3-dichloro-N-[3-cyclopropyl-2-[2-(difluoromethyl)pyrimi] [(−)2,3-dichloro-N-[3-cyclopropyl-2-[2-(difluoromethyl)pyrimidin-5-yl]propyl]benzamide] |

Reference: US9102591B2, “Benzamides” (H. Lundbeck A/S, priority 2012, dated 2015)
